In patent US20230085307A1, “PYRIDAZINONE COMPOUND AND HERBICIDE” (NISSAN CHEMICAL CORPORATION, priority 2019, published 2023):

What was measured:
Japanese bulrush [1] = assay: Test Example 1: herbicidal activity, application before weed generation under submerged conditions (Table 16, symbol B); assay type: in vivo, Japanese bulrush (Schoenoplectus juncoides); conditions: 320 g/ha applied herbicide
Method in brief: (§1)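 Emulsion formulation, water-diluted to set dose, was put onto the flooded surface (4 cm depth, alluvial soil) the same day weeds were sown and 2.5-leaf rice transplanted. After 3 weeks at 25-30 °C under glass, each species was rated 0 (≤5% kill) to 5 (≥90% kill).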

oval-leafed pondweed [2] = assay: Test Example 1: herbicidal activity, application before weed generation under submerged conditions (Table 16, symbol C); assay type: in vivo, oval-leafed pondweed (Monochoria vaginalis); conditions: 320 g/ha applied herbicide
Method in brief: as §1

Japanese bulrush [3] = assay: Test Example 2: herbicidal activity, application during weed generation under submerged conditions (Table 17, symbol B); assay type: in vivo, Japanese bulrush (Schoenoplectus juncoides); conditions: AAH 320 g/ha; application during weed generation, submerged conditions
Method in brief: (§2)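 Alluvial soil in Wagner pots was flooded to 4 cm depth and sown with the three weeds together; pots were kept in a greenhouse at 25° C. to 30° C. At the one to two leaf stage, an emulsion formulation diluted in water to a set rate went onto the water surface; scored three weeks later.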

oval-leafed pondweed [4] = assay: Test Example 2: herbicidal activity, application during weed generation under submerged conditions (Table 17, symbol C); assay type: in vivo, oval-leafed pondweed (Monochoria vaginalis); conditions: AAH 320 g/ha; application during weed generation, submerged conditions
Method in brief: as §2

barnyard grass [5] = assay: Test Example 3: herbicidal effect by foliage application, Wagner pot (Table 18, symbol H); assay type: in vivo, barnyard grass (Echinochloa crus-galli); conditions: 320 g/ha
Method in brief: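 Plants were sown in alluvial soil held under 0.1–0.5 cm standing water and grown 14 days in a greenhouse at 25–30 °C. An emulsifiable formulation, water-diluted to the set dose, was then sprayed onto the foliage, and effects were scored three weeks later using previously defined criteria.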

green foxtail [6] = assay: Test Example 4: herbicidal effect by soil treatment (Table 19, symbol G); assay type: in vivo, green foxtail (Setaria viridis); conditions: 320 g/ha
Method in brief: (§3)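 Soil-surface application: an emulsion agent diluted with water to the predetermined dose is sprayed uniformly over seeds lying under roughly 1.5 cm of sterilized diluvial soil. Boxes stay in a greenhouse at 25° C. to 30° C. Three weeks later, each species is graded on previously defined criteria.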

barnyard grass [7] = assay: Test Example 4: herbicidal effect by soil treatment (Table 19, symbol H); assay type: in vivo, barnyard grass (Echinochloa crus-galli); conditions: 320 g/ha
Method in brief: as §3

blackgrass [8] = assay: Test Example 4: herbicidal effect by soil treatment (Table 19, symbol J); assay type: in vivo, blackgrass (Alopecurus myosuroides); conditions: 320 g/ha
Method in brief: as §3

velvetleaf [9] = assay: Test Example 4: herbicidal effect by soil treatment (Table 19, symbol M); assay type: in vivo, velvetleaf (Abutilon theophrasti); conditions: 320 g/ha
Method in brief: as §3

redroot pigweed = assay: Test Example 4: herbicidal effect by soil treatment (Table 19, symbol N); assay type: in vivo, redroot pigweed (Amaranthus retroflexus); conditions: 320 g/ha
Method in brief: as §3

persian speedwell [10] = assay: Test Example 4: herbicidal effect by soil treatment (Table 19, symbol R); assay type: in vivo, Persian speedwell (Veronica persica); conditions: 320 g/ha
Method in brief: as §3

southern crabgrass = assay: Test Example 5: herbicidal effect by foliage application, plastic box (Table 20, symbol F); assay type: in vivo, southern crabgrass (Digitaria ciliaris); conditions: foliage application, 320 g/ha, 3 weeks after application
Method in brief: (§4)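 Sow seeds spot-wise in sterilized diluvial soil; cover with ~1.5 cm soil. Grow 14 days in greenhouse, 25° C. to 30° C. Spray foliage with emulsion diluted to predetermined amount. Rate effect after 3 weeks.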

green foxtail [11] = assay: Test Example 5: herbicidal effect by foliage application, plastic box (Table 20, symbol G); assay type: in vivo, green foxtail (Setaria viridis); conditions: foliage application, 320 g/ha, 3 weeks after application
Method in brief: as §4

blackgrass [12] = assay: Test Example 5: herbicidal effect by foliage application, plastic box (Table 20, symbol J); assay type: in vivo, blackgrass (Alopecurus myosuroides); conditions: foliage application, 320 g/ha, 3 weeks after application
Method in brief: as §4

windgrass = assay: Test Example 5: herbicidal effect by foliage application, plastic box (Table 20, symbol L); assay type: in vivo, windgrass (Apera spica-venti); conditions: foliage application, 320 g/ha, 3 weeks after application
Method in brief: as §4

velvetleaf [13] = assay: Test Example 5: herbicidal effect by foliage application, plastic box (Table 20, symbol M); assay type: in vivo, velvetleaf (Abutilon theophrasti); conditions: foliage application, 320 g/ha, 3 weeks after application
Method in brief: as §4

persian speedwell [14] = assay: Test Example 5: herbicidal effect by foliage application, plastic box (Table 20, symbol R); assay type: in vivo, Persian speedwell (Veronica persica); conditions: foliage application, 320 g/ha, 3 weeks after application
Method in brief: as §4

| Structure (SMILES) | Herbicidal effect on B: Japanese bulrush (grade 0-5) (Japanese bulrush [1]) | Herbicidal effect on C: oval-leafed pondweed (grade 0-5) (oval-leafed pondweed [2]) | herbicidal effect rating, B: Japanese bulrush (Japanese bulrush [3]) | herbicidal effect rating, C: oval-leafed pondweed (oval-leafed pondweed [4]) | herbicidal effect on H (barnyard grass), rating 0-5 (barnyard grass [5]) | herbicidal effect rating, G: green foxtail (green foxtail [6]) | herbicidal effect rating, H: barnyard grass (barnyard grass [7]) | herbicidal effect rating, J: blackgrass (blackgrass [8]) | herbicidal effect rating, M: velvetleaf (velvetleaf [9]) | herbicidal effect rating, N: redroot pigweed (redroot pigweed) | herbicidal effect rating, R: persian speedwell (persian speedwell [10]) | effect on southern crabgrass (F) (southern crabgrass) | effect on green foxtail (G) (green foxtail [11]) | effect on blackgrass (J) (blackgrass [12]) | effect on windgrass (L) (windgrass) | effect on velvetleaf (M) (velvetleaf [13]) | effect on persian speedwell (R) (persian speedwell [14]) |
| --- | --- | --- | --- | --- | --- | --- | --- | --- | --- | --- | --- | --- | --- | --- | --- | --- | --- |
| CCOc1ccc(-c2sc3ccc(F)cc3c2-c2c(O)c(C)nn(C)c2=O)cc1 [2-030] | 0 (Herbicidal rate of 5% or less (almost no effect)) | 0 (Herbicidal rate of 5% or less (almost no effect)) | 2 (Herbicidal rate of 20% or more and less than 40%) | 0 (Herbicidal rate of 5% or less (almost no effect)) | 5 (Herbicidal rate of 90% or more (almost completely withered)) | 0 (Herbicidal rate of 5% or less (almost no effect)) | 0 (Herbicidal rate of 5% or less (almost no effect)) | 0 (Herbicidal rate of 5% or less (almost no effect)) | 3 (Herbicidal rate of 40% or more and less than 70%) | 4 (Herbicidal rate of 70% or more and less than 90%) | 5 (Herbicidal rate of 90% or more (almost completely withered)) | 3 (Herbicidal rate of 40% or more and less than 70%) | 2 (Herbicidal rate of 20% or more and less than 40%) | 0 (Herbicidal rate of 5% or less (almost no effect)) | 3 (Herbicidal rate of 40% or more and less than 70%) | 5 (Herbicidal rate of 90% or more (almost completely withered)) | 5 (Herbicidal rate of 90% or more (almost completely withered)) |
| CCCC(=O)Oc1c(C)nn(C)c(=O)c1-c1c(-c2ccc(OCC)cc2)sc2ccc(F)cc12 [2-031] | 4 (Herbicidal rate of 70% or more and less than 90%) | 4 (Herbicidal rate of 70% or more and less than 90%) | 3 (Herbicidal rate of 40% or more and less than 70%) | 3 (Herbicidal rate of 40% or more and less than 70%) | 5 (Herbicidal rate of 90% or more (almost completely withered)) | 2 (Herbicidal rate of 20% or more and less than 40%) | 3 (Herbicidal rate of 40% or more and less than 70%) | 0 (Herbicidal rate of 5% or less (almost no effect)) | 3 (Herbicidal rate of 40% or more and less than 70%) | 4 (Herbicidal rate of 70% or more and less than 90%) | 4 (Herbicidal rate of 70% or more and less than 90%) | 0 (Herbicidal rate of 5% or less (almost no effect)) | 2 (Herbicidal rate of 20% or more and less than 40%) | 0 (Herbicidal rate of 5% or less (almost no effect)) | 0 (Herbicidal rate of 5% or less (almost no effect)) | 5 (Herbicidal rate of 90% or more (almost completely withered)) | 5 (Herbicidal rate of 90% or more (almost completely withered)) |
| CCCOc1ccc(-c2sc3ccc(F)cc3c2-c2c(OC(=O)CCC)c(C)nn(C)c2=O)cc1 [2-033] | 5 (Herbicidal rate of 90% or more (almost completely withered)) | 4 (Herbicidal rate of 70% or more and less than 90%) | 4 (Herbicidal rate of 70% or more and less than 90%) | 4 (Herbicidal rate of 70% or more and less than 90%) | 5 (Herbicidal rate of 90% or more (almost completely withered)) | 0 (Herbicidal rate of 5% or less (almost no effect)) | 0 (Herbicidal rate of 5% or less (almost no effect)) | 0 (Herbicidal rate of 5% or less (almost no effect)) | 3 (Herbicidal rate of 40% or more and less than 70%) | 5 (Herbicidal rate of 90% or more (almost completely withered)) | 4 (Herbicidal rate of 70% or more and less than 90%) | 2 (Herbicidal rate of 20% or more and less than 40%) | 5 (Herbicidal rate of 90% or more (almost completely withered)) | 3 (Herbicidal rate of 40% or more and less than 70%) | 0 (Herbicidal rate of 5% or less (almost no effect)) | 5 (Herbicidal rate of 90% or more (almost completely withered)) | 5 (Herbicidal rate of 90% or more (almost completely withered)) |
| CCCC(=O)Oc1c(C)nn(C)c(=O)c1-c1c(-c2ccc(OC(C)C)cc2)sc2ccc(F)cc12 [2-035] | 4 (Herbicidal rate of 70% or more and less than 90%) | 4 (Herbicidal rate of 70% or more and less than 90%) | 4 (Herbicidal rate of 70% or more and less than 90%) | 4 (Herbicidal rate of 70% or more and less than 90%) | 5 (Herbicidal rate of 90% or more (almost completely withered)) | 3 (Herbicidal rate of 40% or more and less than 70%) | 2 (Herbicidal rate of 20% or more and less than 40%) | 0 (Herbicidal rate of 5% or less (almost no effect)) | 3 (Herbicidal rate of 40% or more and less than 70%) | 5 (Herbicidal rate of 90% or more (almost completely withered)) | 5 (Herbicidal rate of 90% or more (almost completely withered)) | 2 (Herbicidal rate of 20% or more and less than 40%) | 4 (Herbicidal rate of 70% or more and less than 90%) | 3 (Herbicidal rate of 40% or more and less than 70%) | 0 (Herbicidal rate of 5% or less (almost no effect)) | 5 (Herbicidal rate of 90% or more (almost completely withered)) | 5 (Herbicidal rate of 90% or more (almost completely withered)) |
| CCCCOc1ccc(-c2sc3ccc(F)cc3c2-c2c(OC(=O)CCC)c(C)nn(C)c2=O)cc1 [2-037] | 2 (Herbicidal rate of 20% or more and less than 40%) | 3 (Herbicidal rate of 40% or more and less than 70%) | 1 (Herbicidal rate of 5% or more and less than 20%) | 3 (Herbicidal rate of 40% or more and less than 70%) | 4 (Herbicidal rate of 70% or more and less than 90%) | 2 (Herbicidal rate of 20% or more and less than 40%) | 0 (Herbicidal rate of 5% or less (almost no effect)) | 0 (Herbicidal rate of 5% or less (almost no effect)) | 4 (Herbicidal rate of 70% or more and less than 90%) | 5 (Herbicidal rate of 90% or more (almost completely withered)) | 3 (Herbicidal rate of 40% or more and less than 70%) | 2 (Herbicidal rate of 20% or more and less than 40%) | 3 (Herbicidal rate of 40% or more and less than 70%) | 0 (Herbicidal rate of 5% or less (almost no effect)) | 0 (Herbicidal rate of 5% or less (almost no effect)) | 5 (Herbicidal rate of 90% or more (almost completely withered)) | 5 (Herbicidal rate of 90% or more (almost completely withered)) |
